Here are results for 3 compounds from the NIST ThermoML archive (doi:10.1021/je060092t).

The data set is described as follows: cn = amount concentration of the nth substance listed, in mol/dm3. The settings on record: Liquid, Taylor dispersion method.

Structures are written as SMILES.

Regarding `OC[C@H]1O[C@@](CO)(O[C@H]2O[C@H](CO)[C@@H](O)[C@H](O)[C@H]2O)[C@@H](O)[C@@H]1O` [D-sucrose] + O, the binary diffusion coefficient (298.15 K, c1 = 0.1) turned out to be 5.26e-10 m2/s.
For the compound `[Cl-].[K+]` [potassium chloride] + O, under “298.15 K, c1 = 0.1”, the binary diffusion coefficient was found to be 1.81e-09 m2/s.
In the case of `OC[C@H]1O[C@@H]2O[C@H]3[C@H](O)[C@@H](O)[C@@H](O[C@H]4[C@H](O)[C@@H](O)[C@@H](O[C@H]5[C@H](O)[C@@H](O)[C@@H](O[C@H]6[C@H](O)[C@@H](O)[C@@H](O[C@H]7[C@H](O)[C@@H](O)[C@@H](O[C@H]8[C@H](O)[C@@H](O)[C@@H](O[C@H]1[C@H](O)[C@H]2O)O[C@@H]8CO)O[C@@H]7CO)O[C@@H]6CO)O[C@@H]5CO)O[C@@H]4CO)O[C@@H]3CO` [β-cyclodextrin] + O, the binary diffusion coefficient reads like this: (298.15 K, c1 = 0.002) 3.24e-10 m2/s; (298.15 K, c1 = 0.004) 3.23e-10 m2/s; (298.15 K, c1 = 0.006) 3.21e-10 m2/s; (298.15 K, c1 = 0.008) 3.18e-10 m2/s; (303.15 K, c1 = 0.002) 3.89e-10 m2/s; (303.15 K, c1 = 0.004) 3.88e-10 m2/s. Moreover, the binary diffusion coefficient runs as follows: (303.15 K, c1 = 0.006) 3.81e-10 m2/s; (303.15 K, c1 = 0.008) 3.78e-10 m2/s; (308.15 K, c1 = 0.002) 4.3e-10 m2/s; (308.15 K, c1 = 0.004) 4.28e-10 m2/s; (308.15 K, c1 = 0.006) 4.27e-10 m2/s; (308.15 K, c1 = 0.008) 4.23e-10 m2/s. For the same compound, the binary diffusion coefficient worked out at 4.56e-10 m2/s (312.15 K, c1 = 0.002); 4.54e-10 m2/s (312.15 K, c1 = 0.004); 4.54e-10 m2/s (312.15 K, c1 = 0.006); 4.53e-10 m2/s (312.15 K, c1 = 0.008).
